Read-outs that look alike come from different tables or passages of the source. Bridge positions count the residues as written; N and C are the ends. Square brackets hold non-standard residues; d marks the D form. Peptide text beside a SMILES is read from it. Phe(4-F) = N[C@@H](Cc1ccc(F)cc1)C(=O)O; Abu = CC[C@H](N)C(=O)O
Columns and labels:
D. immitis iPGM = D. immitis iPGM (Dirofilaria immitis, UniProt F4ZE01); test: biochemical
E. coli iPGM [1] = target: T1, E. coli iPGM (Escherichia coli, UniProt P37689); test: biochemical; settings: […]
C. elegans iPGM = C. elegans iPGM (Caenorhabditis elegans, UniProt G5EFZ1); test: SPR binding kinetics and saturation binding, biotinylated iPGM on Biotin CAPture chip (Biacore S200)
B. malayi iPGM = target: T2, B. malayi iPGM (Brugia malayi, UniProt Q4VWF8); test: biochemical; format: binding; settings: for Kd: Supplementary Table 5, SPR, B.m. iPGM, unit inferred
T2 sequence (Q4VWF8 1-515): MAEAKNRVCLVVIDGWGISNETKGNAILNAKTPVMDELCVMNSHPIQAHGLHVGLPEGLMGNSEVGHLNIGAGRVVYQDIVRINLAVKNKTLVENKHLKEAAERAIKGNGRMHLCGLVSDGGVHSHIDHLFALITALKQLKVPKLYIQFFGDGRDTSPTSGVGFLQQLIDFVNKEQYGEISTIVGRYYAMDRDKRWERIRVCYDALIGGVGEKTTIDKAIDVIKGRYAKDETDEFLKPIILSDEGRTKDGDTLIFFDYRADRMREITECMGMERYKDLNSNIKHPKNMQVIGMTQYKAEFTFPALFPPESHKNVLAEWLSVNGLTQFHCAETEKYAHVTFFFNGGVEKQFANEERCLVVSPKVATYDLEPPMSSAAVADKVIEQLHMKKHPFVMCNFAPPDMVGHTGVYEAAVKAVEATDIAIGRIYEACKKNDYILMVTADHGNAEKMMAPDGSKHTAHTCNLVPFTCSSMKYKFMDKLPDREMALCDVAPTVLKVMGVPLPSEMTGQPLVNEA

E. coli iPGM [2] = target: T1, E. coli iPGM; test: SPR binding kinetics and saturation binding, biotinylated iPGM on Biotin CAPture chip (Biacore S200); settings: for koff / kon: LoQ = limit of quantitation; for Kd: unit inferred
[3] = Supplementary Table 5, SPR, E.c. iPGM
[4] = SPR, 25 °C, global fit to 1:1 binding model

**Q.** For CC(C)C[C@H](NC(=O)[C@H](Cc1ccc(O)cc1)NC(=O)[C@@H]1CSCC(=O)N[C@H](Cc2ccc(O)cc2)C(=O)N[C@@H](CC(=O)O)C(=O)N[C@@H](Cc2ccc(F)cc2)C(=O)N2CCC[C@H]2C(=O)NCC(=O)N[C@@H](CC(=O)O)C(=O)N[C@@H](Cc2ccc(O)cc2)C(=O)N1)C(=O)N[C@@H](Cc1ccc(O)cc1)C(=O)NCC(=O)N[C@H](C(=O)N[C@@H](CS)C(N)=O)[C@@H](C)O [Ce-2 Y3(4F)F] ({CH2CO}-[dY]D[Phe(4-F)]PGDYCYLYGTC-NH2; thioether N-8), which IC50 (D. immitis iPGM; Di iPGM Ave IC50 (M)) is on record?
**A.** The IC50 was 1.52e-09 M.

**Q.** And the IC50 (E. coli iPGM [1])?
**A.** The IC50 was 4180 nM.

**Q.** How did the Kd (C. elegans iPGM) turn out when CC(C)C[C@H](NC(=O)[C@H](Cc1ccc(O)cc1)NC(=O)[C@@H]1CSCC(=O)N[C@H](Cc2ccc(O)cc2)C(=O)N[C@@H](CC(=O)O)C(=O)N[C@@H](Cc2ccc(O)cc2)C(=O)N2CCC[C@H]2C(=O)NCC(=O)N[C@@H](CC(=O)O)C(=O)N[C@@H](Cc2ccc(O)cc2)C(=O)N1)C(=O)N[C@@H](Cc1ccc(O)cc1)C(=O)NCC(=O)N[C@@H](Cc1c[nH]cn1)C(=O)N[C@@H](CS)C(N)=O [Ce-2 T13H] was run?
**A.** The Kd was 0.0264 nM.

**Q.** What about the koff (C. elegans iPGM) of the same compound?
**A.** Its koff is 1.98e-05 s⁻¹.

**Q.** And the kon (C. elegans iPGM)?
**A.** The kon was 752000 M⁻¹ s⁻¹.

**Q.** What about the koff (B. malayi iPGM) of the same compound?
**A.** The koff was 0.000587 s⁻¹.

**Q.** What about the kon (B. malayi iPGM) of the same compound?
**A.** Its kon is 1.06e+06 M⁻¹ s⁻¹.

**Q.** And the Kd (B. malayi iPGM)?
**A.** Its Kd is 0.555 nM.

**Q.** What about the koff (E. coli iPGM [2]; [3]) of the same compound?
**A.** Its koff is 0.0144 s⁻¹.

**Q.** And the kon (E. coli iPGM [2]; [3])?
**A.** Its kon is 103000 M⁻¹ s⁻¹.

**Q.** What about the Kd (E. coli iPGM [2]; [3]) of the same compound?
**A.** Its Kd is 62.7 nM.

**Q.** And the IC50 (D. immitis iPGM; IC50 (M))?
**A.** Its IC50 is 3.77e-09 M.

**Q.** With CC(C)C[C@H](NC(=O)[C@H](Cc1ccccc1)NC(=O)[C@@H]1CSCC(=O)N[C@H](Cc2ccc(O)cc2)C(=O)N[C@@H](CC(=O)O)C(=O)N[C@@H](Cc2ccc(O)cc2)C(=O)N2CCC[C@H]2C(=O)NCC(=O)N[C@@H](CC(=O)O)C(=O)N[C@@H](Cc2ccccc2)C(=O)N1)C(=O)N[C@@H](Cc1ccc(O)cc1)C(=O)NCC(=O)N[C@H](C(=O)N[C@@H](CS)C(N)=O)[C@@H](C)O [Ce-2 Y7F, Y9F] ({CH2CO}-[dY]DYPGDFCFLYGTC-NH2; thioether N-8) as the compound, how does the IC50 (D. immitis iPGM; Di iPGM Ave IC50 (M)) read?
**A.** Its IC50 is 2.07e-08 M.

**Q.** What about the IC50 (D. immitis iPGM; IC50 (M)) of the same compound?
**A.** Its IC50 is 2.03e-08 M.

**Q.** What about the IC50 (E. coli iPGM [1]) of the same compound?
**A.** Its IC50 is 4460 nM.

**Q.** How did the Kd (C. elegans iPGM) turn out when CC[C@@H]1NC(=O)[C@@H](Cc2ccc(O)cc2)NC(=O)CSC[C@@H](C(=O)N[C@@H](Cc2ccc(O)cc2)C(=O)N[C@@H](CC(C)C)C(=O)N[C@@H](Cc2ccc(O)cc2)C(=O)NCC(=O)N[C@H](C(=O)N[C@@H](CS)C(N)=O)[C@@H](C)O)NC(=O)[C@H](Cc2ccc(O)cc2)NC(=O)[C@H](CC(=O)O)NC(=O)CNC(=O)[C@@H]2CCCN2C(=O)[C@H](Cc2ccc(O)cc2)NC1=O [Ce-2 D2Abu] ({CH2CO}-[dY][Abu]YPGDYCYLYGTC-NH2; thioether N-8) was run?
**A.** Its Kd is 0.0157 nM.

**Q.** And the koff (C. elegans iPGM)?
**A.** Its koff is 4.55e-05 s⁻¹.

**Q.** What about the kon (C. elegans iPGM) of the same compound?
**A.** The kon was 3.04e+06 M⁻¹ s⁻¹.

**Q.** What about the koff (B. malayi iPGM) of the same compound?
**A.** Its koff is 0.000125 s⁻¹.

**Q.** What about the kon (B. malayi iPGM) of the same compound?
**A.** The kon was 561000 M⁻¹ s⁻¹.

**Q.** What about the Kd (B. malayi iPGM) of the same compound?
**A.** Its Kd is 0.223 nM.

**Q.** What about the koff (E. coli iPGM [2]; [3]) of the same compound?
**A.** The koff was 0.00202 s⁻¹.

**Q.** What about the kon (E. coli iPGM [2]; [3]) of the same compound?
**A.** The kon was 270000 M⁻¹ s⁻¹.

**Q.** What about the Kd (E. coli iPGM [2]; [3]) of the same compound?
**A.** Its Kd is 25.4 nM.

**Q.** What about the IC50 (D. immitis iPGM; Di iPGM Ave IC50 (M)) of the same compound?
**A.** Its IC50 is 1.52e-09 M.

**Q.** And the IC50 (D. immitis iPGM; IC50 (M))?
**A.** Its IC50 is 1.57e-09 M.

**Q.** Which IC50 (D. immitis iPGM; Di iPGM Ave IC50 (M)) does the source give for COc1ccc(C[C@H]2NC(=O)CSC[C@@H](C(=O)N[C@@H](Cc3ccc(O)cc3)C(=O)N[C@@H](CC(C)C)C(=O)N[C@@H](Cc3ccc(O)cc3)C(N)=O)NC(=O)[C@H](Cc3ccc(O)cc3)NC(=O)[C@H](CC(=O)O)NC(=O)CNC(=O)[C@@H]3CCCN3C(=O)[C@H](Cc3ccc(O)cc3)NC(=O)[C@H](CC(=O)O)NC2=O)cc1 [Ce-2d Y1D(4OMe)F] here?
**A.** The IC50 was 6.18e-08 M.

**Q.** What about the IC50 (E. coli iPGM [1]) of the same compound?
**A.** Its IC50 is 18700 nM.

**Q.** CC(C)C[C@H](NC(=O)[C@H](Cc1ccc(O)cc1)NC(=O)[C@@H]1CSCC(=O)N[C@H](Cc2ccc(O)cc2)C(=O)N[C@@H](CCC(N)=O)C(=O)N[C@@H](Cc2ccc(O)cc2)C(=O)N2CCC[C@H]2C(=O)NCC(=O)N[C@@H](CC(=O)O)C(=O)N[C@@H](Cc2ccc(O)cc2)C(=O)N1)C(=O)N[C@@H](Cc1ccc(O)cc1)C(N)=O [Ce-2d D2Q] was tested. Which IC50 (D. immitis iPGM; Di iPGM Ave IC50 (M)) did it give?
**A.** The IC50 was 3.31e-07 M.

**Q.** What about the IC50 (E. coli iPGM [1]) of the same compound?
**A.** The IC50 was 8040 nM.

**Q.** How did the IC50 (E. coli iPGM [1]) turn out when CC(C)C[C@H](NC(=O)[C@H](Cc1ccc(O)cc1)NC(=O)[C@@H]1CSCC(=O)N[C@H](Cc2ccc(O)cc2)C(=O)N[C@@H](CC(=O)O)C(=O)N[C@@H](Cc2ccc(O)cc2)C(=O)N2CCC[C@H]2C(=O)N[C@@H](CC(C)C)C(=O)N[C@@H](CC(=O)O)C(=O)N[C@@H](Cc2ccc(O)cc2)C(=O)N1)C(=O)N[C@@H](Cc1ccc(O)cc1)C(N)=O [Ce-2d G5L] was run?
**A.** Its IC50 is 13200 nM.

**Q.** What does the source list for CC(C)C[C@H](NC(=O)[C@H](Cc1ccc(O)cc1)NC(=O)[C@@H]1CSCC(=O)N[C@H](Cc2ccc(O)cc2)C(=O)N[C@@H](CC(=O)O)C(=O)N[C@@H](Cc2ccc(O)cc2)C(=O)N2CCC[C@H]2C(=O)NCC(=O)N[C@@H](CC(=O)O)C(=O)N[C@@H](Cc2ccc(O)cc2)C(=O)N1)C(=O)N[C@@H](Cc1ccc(O)cc1)C(=O)NCC(=O)N[C@@H](CO)C(=O)N[C@@H](CS)C(N)=O [Ce-2 Thr13Ser]?
**A.** Kd (C. elegans iPGM): 0.0287 nM; koff (C. elegans iPGM): 7.83e-05 s⁻¹; kon (C. elegans iPGM): 2.86e+06 M⁻¹ s⁻¹; koff (C. elegans iPGM; [4]): 0.00017 s⁻¹; kon (C. elegans iPGM; [4]): 2.9e+06 M⁻¹ s⁻¹; koff (B. malayi iPGM): 7.84e-05 s⁻¹; kon (B. malayi iPGM): 1.47e+06 M⁻¹ s⁻¹; Kd (B. malayi iPGM): 0.0853 nM; koff (B. malayi iPGM; [4]): 7.8e-05 s⁻¹; kon (B. malayi iPGM; [4]): 1.6e+06 M⁻¹ s⁻¹; koff (E. coli iPGM [2]; SPR, 25 °C, global fit to 1:1 binding model, read-out: koff): 0.00033 s⁻¹; kon (E. coli iPGM [2]; SPR, 25 °C, global fit to 1:1 binding model, read-out: kon): 240000 M⁻¹ s⁻¹; koff (E. coli iPGM [2]; [3]): 0.000333 s⁻¹; kon (E. coli iPGM [2]; [3]): 236000 M⁻¹ s⁻¹; Kd (E. coli iPGM [2]; [3]): 1.31 nM; IC50 (D. immitis iPGM; IC50 (M)): 2.56e-09 M

— article PMC8113725, “Structure–activity relationship of ipglycermide binding to phosphoglycerate mutases” (The Journal of Biological Chemistry, 2021)
